Data: patent publication US6780853B1, “Neuroactive steroids of the androstane and pregnane series” (priority 1995, dated 2004)
Read-outs that look alike come from different tables or passages of the source.

Experiments:
Progesterone Receptors = test: Inhibition of 3H-Progesterone Binding to the Bovine Uteral Progesterone Receptors; settings: competitor 10^−6M; 3H-progesterone 0.15 nM
Estrogen Receptors = biological target: T1, Estrogen Receptors (Bos taurus, UniProt P49884); test: Inhibition of 3H-Estradiol Binding to Bovine Uteral Estrogen Receptors; settings: competitor 10^−6M; 3H-estradiol 0.15 nM
T1 construct: from tissue; host or cells: bovine uterus cytosol
T1 sequence (P49884 1-596): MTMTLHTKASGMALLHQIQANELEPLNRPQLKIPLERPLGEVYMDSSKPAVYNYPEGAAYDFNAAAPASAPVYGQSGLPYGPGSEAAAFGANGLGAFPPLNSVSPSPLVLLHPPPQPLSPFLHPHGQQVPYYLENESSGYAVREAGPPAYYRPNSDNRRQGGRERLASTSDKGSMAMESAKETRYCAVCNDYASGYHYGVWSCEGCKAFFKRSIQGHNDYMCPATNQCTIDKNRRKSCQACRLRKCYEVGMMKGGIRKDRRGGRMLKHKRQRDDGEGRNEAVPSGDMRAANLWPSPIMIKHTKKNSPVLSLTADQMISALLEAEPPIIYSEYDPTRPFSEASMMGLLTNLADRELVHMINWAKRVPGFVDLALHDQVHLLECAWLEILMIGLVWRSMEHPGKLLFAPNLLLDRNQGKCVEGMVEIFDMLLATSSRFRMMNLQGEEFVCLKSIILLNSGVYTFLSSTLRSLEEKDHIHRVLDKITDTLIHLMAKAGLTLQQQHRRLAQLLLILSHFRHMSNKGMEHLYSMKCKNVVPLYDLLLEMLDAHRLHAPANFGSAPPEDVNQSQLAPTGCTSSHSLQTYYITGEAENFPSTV
Experimental: (§1) Various hormonal activities of representative neuroactive steroids were further studied through testing their potential estrogenic, mineralocorticoid and glucocorticoid activities. These activities were analyzed by monitoring the ability of the compounds to inhibit binding of the steroid hormones to their respective hormone receptors.

[1] = biological target: T2, Mineralocorticoid Receptors (Rattus norvegicus, UniProt P22199); test: Inhibition of 3H-Aldosterone Binding to Hippocampal Mineralocorticoid Receptors; settings: competitor 10^−6M; 3 nM 3H-aldosterone, RU28362 0.5 μM
T2 construct: To isolate the mineralocorticoid receptor, brain cytosol fractions were prepared; from tissue; host or cells: brain (hippocampal) cytosol of adrenalectomized rats
T2 sequence (P22199 1-981): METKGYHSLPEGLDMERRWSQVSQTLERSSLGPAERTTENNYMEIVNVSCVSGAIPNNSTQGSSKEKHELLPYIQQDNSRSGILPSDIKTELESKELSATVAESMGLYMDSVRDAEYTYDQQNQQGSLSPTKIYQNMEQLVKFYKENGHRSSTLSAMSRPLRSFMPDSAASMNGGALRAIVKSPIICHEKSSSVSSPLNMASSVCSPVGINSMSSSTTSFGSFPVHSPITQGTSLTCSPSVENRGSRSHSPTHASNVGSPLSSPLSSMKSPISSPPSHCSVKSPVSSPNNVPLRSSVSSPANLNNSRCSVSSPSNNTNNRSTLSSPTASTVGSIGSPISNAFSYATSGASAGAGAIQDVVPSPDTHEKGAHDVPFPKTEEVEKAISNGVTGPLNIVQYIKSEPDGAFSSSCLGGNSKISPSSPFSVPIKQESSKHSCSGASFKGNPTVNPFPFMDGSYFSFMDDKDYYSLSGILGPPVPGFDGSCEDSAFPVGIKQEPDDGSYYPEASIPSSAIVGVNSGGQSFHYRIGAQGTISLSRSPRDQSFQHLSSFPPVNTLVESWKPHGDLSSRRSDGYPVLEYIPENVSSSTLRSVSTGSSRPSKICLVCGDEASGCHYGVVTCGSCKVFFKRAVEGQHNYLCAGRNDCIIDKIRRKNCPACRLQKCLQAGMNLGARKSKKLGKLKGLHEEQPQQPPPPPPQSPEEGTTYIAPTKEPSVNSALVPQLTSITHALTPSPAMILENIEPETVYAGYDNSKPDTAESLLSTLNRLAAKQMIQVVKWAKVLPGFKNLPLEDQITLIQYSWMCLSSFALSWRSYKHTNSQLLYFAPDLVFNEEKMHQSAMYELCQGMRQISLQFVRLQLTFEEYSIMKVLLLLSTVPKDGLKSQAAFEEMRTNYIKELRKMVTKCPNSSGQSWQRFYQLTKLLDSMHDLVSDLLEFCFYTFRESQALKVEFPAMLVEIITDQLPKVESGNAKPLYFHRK
Experimental: as §1
In Table 4, rats were adrenalectornized 3 days prior to sacrifice.

Glucocorticoid Receptors = biological target: T3, Glucocorticoid Receptors (Rattus norvegicus, UniProt P06536); test: Inhibition of 3H-Dexamethasone Binding to Glucocorticoid Receptors; settings: competitor 10^−6M; 3 nM 3H-dexamethasone
T3 construct: from tissue; host or cells: rat brain cytosol
T3 sequence (P06536 1-795): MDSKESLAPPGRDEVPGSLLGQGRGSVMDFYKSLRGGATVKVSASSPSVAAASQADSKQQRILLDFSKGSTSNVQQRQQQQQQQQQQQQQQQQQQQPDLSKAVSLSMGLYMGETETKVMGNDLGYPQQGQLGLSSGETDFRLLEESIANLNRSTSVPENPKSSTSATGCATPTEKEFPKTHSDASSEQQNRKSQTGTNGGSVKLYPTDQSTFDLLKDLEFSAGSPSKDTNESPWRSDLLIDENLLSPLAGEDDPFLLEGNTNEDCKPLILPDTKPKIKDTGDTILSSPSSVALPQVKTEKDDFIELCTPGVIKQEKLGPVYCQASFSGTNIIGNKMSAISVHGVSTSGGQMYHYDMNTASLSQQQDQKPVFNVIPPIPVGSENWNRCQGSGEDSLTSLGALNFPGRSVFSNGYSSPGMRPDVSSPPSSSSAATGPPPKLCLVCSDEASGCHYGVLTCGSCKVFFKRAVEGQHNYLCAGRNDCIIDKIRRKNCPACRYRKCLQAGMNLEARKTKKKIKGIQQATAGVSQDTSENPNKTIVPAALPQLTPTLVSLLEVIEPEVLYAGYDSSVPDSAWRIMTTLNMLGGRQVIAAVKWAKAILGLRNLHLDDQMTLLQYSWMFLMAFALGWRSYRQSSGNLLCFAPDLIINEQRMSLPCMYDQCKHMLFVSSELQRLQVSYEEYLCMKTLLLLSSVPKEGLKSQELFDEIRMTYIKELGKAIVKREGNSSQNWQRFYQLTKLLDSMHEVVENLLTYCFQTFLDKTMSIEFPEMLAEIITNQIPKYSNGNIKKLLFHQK
Experimental: as §1
For Table 4, brain cytosol fractions were prepared as for Table 3, and the compounds were incubated with 3 nM of ^3H-dexamethasone (the specific ligand for the glucocorticoid receptor).

hormonal activity = test: Hormonal activity in vivo; design: species or system animals
Description: Thus, they wil not have the hormonal side-effects which would be associated with binding to such steroid receptors.

TBPS [2] = test: Chemical convulsant test, column TBPS; assay type: in vivo, mice; settings: Mus musculus, read-out: ED50 TBPS
Description: (§2) The anticonvulsant tests are similar to that described above.

[3] = test system: STR (strychnine) convulsions; test: Chemical convulsant test, strychnine; assay type: in vivo, mice; settings: Mus musculus, read-out: ED50 STR
Description: as §2

[4] = test system: metrazol induced convulsions; test: Antimetrazol activity in mice; assay type: in vivo; settings: Mus musculus; steroid i.p., convulsant s.c., 50% hydroxypropyl-β-cyclodextrin
Procedure, shortened: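 Mice dosed with test compounds at various doses 10 minutes before metrazol (85 mg/kg) injection. Each animal observed for 30 minutes, recording time to onset of myoclonus (forelimb clonic activity).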

[5] = test system: BIC (bicuclline) convulsions; test: Chemical convulsant test, BIC; assay type: in vivo, mice; settings: Mus musculus; steroid i.p., convulsant s.c., 50% hydroxypropyl-β-cyclodextrin
Description: as §2

[6] = Rotorod test (general CNS depression potential); design: species or system mice; settings: mouse, in vivo, ip, 50% hydroxypropyl-β-cyclodextrin
Description: as §2

[7] = test system: maximal electroshock tonic seizure; test: Maximal electroshock test; assay type: in vivo, mice; settings: Mus musculus, ip, 50% hydroxypropyl-β-cyclodextrin
Description: as §2

[8] = test system: maximal electroshock tonic seizure; settings: cited from earlier work
[9] = test system: BIC (bicuclline) convulsions; settings: cited from earlier work
[10] = test system: STR (strychnine) convulsions; settings: cited from earlier work
[11] = test system: metrazol induced convulsions; settings: cited from earlier work
[12] = data from Swinyard & Woodhead 1982; cited from earlier work
TBPS [13] = settings: data from Swinyard & Woodhead 1982; cited from earlier work
[14] = convulsant i.v., data from Worms et al. 1982
[15] = data from Swinyard & Woodhead 1982

C[C@]12CC[C@@H](O)C[C@H]1CC[C@@H]1[C@@H]2CC[C@]2(C)[C@@H](C(=O)CO)CC[C@@H]12 [5β-pregnan-3α,21-diol-20-one, 5β-pregnan-3α,21-diol-20-one]
% of Inhibition (Progesterone Receptors): 6%
% of Inhibition (Estrogen Receptors): 0%
% of Inhibition [1]: 13.8%
% of Inhibition (Glucocorticoid Receptors): 8.2%

CC(=O)[C@H]1CC[C@H]2[C@@H]3CC[C@H]4C[C@](C)(O)CC[C@]4(C)[C@H]3CC[C@]12C [5α-pregnan-3α-ol-3β-methyl-20-one, 3α-hydroxy-3β-methyl-5α-pregnan-20-one]
% of Inhibition (Progesterone Receptors): 4%
hormonal activity when given to animals in vivo (hormonal activity): not to have any hormonal activity
ED50 (TBPS [2]): 11.7 mg/kg
ED50 [3]: > 40 mg/kg
ED50 [4]: 4.3 mg/kg
ED50 [5]: 4.6 mg/kg
ED50 at 10 min [6]: 33.4 mg/kg
ED50 [7]: 29.7 mg/kg

NC(=O)CCC/N=C(\c1ccc(Cl)cc1)c1cc(F)ccc1O [Progabide]
ED50 MES ([8]; data from Worms et al. 1982): 75 mg/kg
ED50 BIC [9, 14]: 30 mg/kg
ED50 STR [10, 14]: 75 mg/kg
ED50 PTZ [11, 14]: 30 mg/kg

CC(C)(O)[C@H]1CC[C@H]2[C@@H]3CC[C@H]4C[C@H](O)CC[C@]4(C)[C@H]3CC[C@]12C [5α-pregnan-20-dimethyl-3α,20-diol, 5α-pregnan-20-dimethyl-3α,20-diol]
% of Inhibition (Progesterone Receptors): 0%
% of Inhibition (Estrogen Receptors): 0%
% of Inhibition [1]: 0%
% of Inhibition (Glucocorticoid Receptors): 2.6%

O=C1CN=C(c2ccccc2Cl)c2cc([N+](=O)[O-])ccc2N1 [Clonazepam]
ED50 MES [8, 15]: 111 mg/kg
ED50 BIC [9, 15]: 0.0046 mg/kg
ED50 STR [10, 15]: >300 mg/kg
ED50 RR [12]: 0.184 mg/kg
ED50 PTZ [11, 15]: 0.025 mg/kg
ED50 TBPS (TBPS [13]): 205 mg/kg
